In US8153385B2, “Target protein and target gene in drug designing and screening method” (Reverse Proteomics Research Institute Co., Ltd., priority 2004, dated 2012):
Counter-ions that a name gives are not always drawn.

Biological target: T1, FLJ13397 clone-derived protein (CARP) (Homo sapiens, UniProt Q9H8M7)
T1 construct: A human full-length cDNA clone was expressed as a protein with an N-terminal His tag; His tag (pDEST17 Gateway vector) (N); made in house; host or cells: Escherichia coli BL21star(DE3)pLysS
T1 sequence (Q9H8M7 1-445): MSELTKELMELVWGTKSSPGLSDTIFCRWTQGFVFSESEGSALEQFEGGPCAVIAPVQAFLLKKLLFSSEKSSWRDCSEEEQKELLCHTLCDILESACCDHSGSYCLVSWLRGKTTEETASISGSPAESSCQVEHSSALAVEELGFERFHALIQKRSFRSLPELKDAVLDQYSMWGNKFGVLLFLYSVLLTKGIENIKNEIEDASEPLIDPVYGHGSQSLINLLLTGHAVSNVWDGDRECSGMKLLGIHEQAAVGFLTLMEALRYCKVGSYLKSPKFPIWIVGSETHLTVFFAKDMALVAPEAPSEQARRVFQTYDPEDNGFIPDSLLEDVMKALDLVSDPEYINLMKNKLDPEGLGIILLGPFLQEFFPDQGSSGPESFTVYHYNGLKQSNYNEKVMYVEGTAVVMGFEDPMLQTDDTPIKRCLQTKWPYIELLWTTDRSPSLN
Test: SEC/MS (size exclusion chromatography / mass analysis) interaction analysis between FLJ13397 clone-derived protein and compounds
Type: binding
Experimental: BP-reaction was performed on human full-length cDNA clone and the cloning vector Gateway pDONR201 by the PCR cloning method using the Invitrogen Gateway system to yield an entry clone. LR-reaction was performed on this entry clone with the destination vector pDEST17 (Gateway System) and LR Clonase at 25° C. for 60 minutes to yield an expression plasmid. Escherichia coli competent cell BL21star(DE3)pLysS were transformed with this expression plasmid, a clone incorporating the expression vector was selected, and a frozen stock was prepared. The transformant was inoculated into LB medium and precultured, after which it was transferred into SB medium and cultured to induce the expression by IPTG, and the cells were stored frozen.
A human full-length cDNA clone was expressed as a protein with an N-terminal His tag. This clone was purified using BioRobot 8000 (Qiagen) or ACTA Crystal (Amersham). […] In the purification with ACTA Crystal, affinity purification using a HisTrap HP column was followed by gel filtration purification using the Gel Filtration Column HiLoad 16/60 or a 10/30 Superdex 75 prep grade column. The purified fraction was used for interaction analysis after being subjected to SDS-PAGE to verify the estimated molecular weight and purity.
To analyze the interactions between commonly used drugs and proteins expressed from human full-length cDNA clones while keeping both the proteins and the compounds in non-modified, non-immobilized state, size exclusion chromatography (SEC) and mass analysis were used in combination (FIGS. 1 and 2). The specific procedures are shown below.
The compound-protein mixture prepared in step 1 was subjected to chromatography using an SEC column, the compound and the protein were separated by SEC, and the bound compound or compound that interacted with the protein in the protein fraction was analyzed using a mass analyzer.
Protein concentrations were measured using BCA Protein Assay (PIERCE), in consideration of the purity calculated by SDS-PAGE.
Mass analysis was performed using LCQ DECA XP (Thermoelectron) or Q-TOFmicro (Micromass), equipped with an ESI probe. The LC pump used was Agilent 1100 (Yokogawa Analytical Systems), and the autosampler used was HTC-PAL (CTC Analytics) equipped with a cooling stacker.
In the SEC method using a 384-well spin column, Unifilter 100 (Whatman), packed with 10 μL (dry volume) of Bio-Gel P6 (BIO-RAD) and swollen with milliQ water, was used as the SEC column. […] The SEC spin column was mounted on an acetonitrile-aliquoted 384-well U-bottom plate and centrifuged; the SEC spin column filtrate, which is a protein fraction, was retrieved in 50% acetonitrile. The protein precipitate produced by the acetonitrile was removed via centrifugation and filtration for protein removal; the resulting filtrate was concentrated by centrifugation and re-dissolved in 10 μL of 50% methanol to obtain a mass analysis sample. The mobile phase supplied to the mass analyzer was 0.1% formic acid/50% methanol solution in the positive ion mode, and 0.1% ammonia/50% methanol solution in the negative ion mode; these mobile phases were used at a flow rate of 40 μL/min. 2-μL of mass analysis samples were injected using an autosampler at 2-Minute intervals; the mass spectral intensity of the compound was measured to obtain the spectral intensity of the pharmaceutical compound contained in the SEC spin column filtrate (protein fraction eluted from SEC).

[1] = compound 1 μM, protein 0 μM (protein-free reference)
[2] = compound 1 μM, protein 23.75 μM
[3] = compound 10 μM, protein 0 μM (protein-free reference)
[4] = compound 10 μM, protein 23.75 μM
[5] = compound 10 μM, protein 47.5 μM
[6] = compound 100 μM, protein 0 μM (protein-free reference)
[7] = compound 100 μM, protein 23.75 μM
[8] = compound 100 μM, protein 47.5 μM
[9] = compound 250 μM, protein 0 μM (protein-free reference)
[10] = compound 250 μM, protein 23.75 μM
[11] = compound 250 μM, protein 47.5 μM

SMILES | spectrum intensity of the extracted mass range (compound in SEC spin column filtrate) [1] | spectrum intensity of the extracted mass range (compound in SEC spin column filtrate) [2] | spectrum intensity of the extracted mass range (compound in SEC spin column filtrate) (compound 1 μM, protein 47.5 μM) | spectrum intensity of the extracted mass range (compound in SEC spin column filtrate) [3] | spectrum intensity of the extracted mass range (compound in SEC spin column filtrate) [4] | spectrum intensity of the extracted mass range (compound in SEC spin column filtrate) [5] | spectrum intensity of the extracted mass range (compound in SEC spin column filtrate) [6] | spectrum intensity of the extracted mass range (compound in SEC spin column filtrate) [7] | spectrum intensity of the extracted mass range (compound in SEC spin column filtrate) [8] | spectrum intensity of the extracted mass range (compound in SEC spin column filtrate) [9] | spectrum intensity of the extracted mass range (compound in SEC spin column filtrate) [10] | spectrum intensity of the extracted mass range (compound in SEC spin column filtrate) [11]
CC[C@@H](C(=O)[C@@H](C)[C@@H](O)[C@H](C)CCc1ccc(C)c(O)c1C(=O)O)[C@H]1O[C@](CC)([C@H]2CC[C@](O)(CC)[C@H](C)O2)C[C@@H]1C [Lasalocid sodium salt] | 9674294 | 11601595 | 10467838 | 13154726 | 20062681 | 46504126 | 945932706 | 2538387120 | 3226817361 | 2174989976 | 9287976762 | 9802098210
COC(=O)Nc1nc2ccc(C(=O)c3ccccc3)cc2[nH]1 [Mebendazole] | 495347 | 480780 | 495499 | 525296 | 777305 | 725295 | 482901 | 15054045 | 9517765 | 444136 | 32097734 | 43484997
COC(=O)Nc1nc2ccc(C(=O)c3cccs3)cc2[nH]1 [Nocodazole] | 8235638 | 5202611 | 3977550 | 4879694 | 6159010 | 9316181 | 6162151 | 33749400 | 37180973 | 9512433 | 131043824 | 227971112
COC(=O)Nc1nc2ccc([S+]([O-])c3ccccc3)cc2[nH]1 (stereo not drawn) [Oxfendazole] | 23723676 | 29471243 | 35025210 | 28662280 | 41004899 | 42911925 | 106348780 | 160312456 | 180803127 | 128622627 | 264420112 | 506800735
